Data reported in patent US11453660B2, “Androgen receptor and glucocorticoid receptor modulators” (ONCOSTELLAE, S.L., priority 2017, dated 2022).
Where a chain is given by its changes, count along the chain named.

Assays:
[1] = target: T1, Human Glucocorticoid Receptor (Homo sapiens, UniProt P04150); assay: Competition Binding in IM-9 Human Glucocorticoid Receptor (GR IM-9); conditions: cytosol from IM-9 cell line, 1.5 nM [3H]-Dexamethasone, 4° C. for 6 hours
T1 construct: endogenous in cells; host or cells: cytosol from IM-9 cell line
T1 sequence (P04150 1-777): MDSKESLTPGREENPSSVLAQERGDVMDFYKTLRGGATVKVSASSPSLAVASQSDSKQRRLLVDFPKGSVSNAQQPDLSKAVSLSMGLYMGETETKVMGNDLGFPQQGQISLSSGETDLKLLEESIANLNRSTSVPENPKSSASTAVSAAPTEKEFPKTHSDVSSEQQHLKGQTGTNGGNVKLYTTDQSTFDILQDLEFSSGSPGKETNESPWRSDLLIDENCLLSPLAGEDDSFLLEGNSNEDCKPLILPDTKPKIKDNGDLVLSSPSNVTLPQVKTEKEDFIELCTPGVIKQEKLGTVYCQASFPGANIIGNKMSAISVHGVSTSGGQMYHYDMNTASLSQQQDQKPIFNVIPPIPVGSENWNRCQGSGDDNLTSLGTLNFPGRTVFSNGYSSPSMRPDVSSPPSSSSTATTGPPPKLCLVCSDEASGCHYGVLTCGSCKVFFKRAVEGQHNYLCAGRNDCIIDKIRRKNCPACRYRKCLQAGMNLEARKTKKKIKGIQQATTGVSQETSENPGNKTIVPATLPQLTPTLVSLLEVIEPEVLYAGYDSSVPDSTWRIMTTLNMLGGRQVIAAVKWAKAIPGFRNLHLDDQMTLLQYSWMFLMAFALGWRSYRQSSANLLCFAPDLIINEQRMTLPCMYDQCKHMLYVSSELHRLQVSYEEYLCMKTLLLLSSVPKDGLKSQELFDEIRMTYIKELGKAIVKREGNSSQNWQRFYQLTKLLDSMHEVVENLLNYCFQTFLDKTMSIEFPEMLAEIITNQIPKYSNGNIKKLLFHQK
Procedure, shortened: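 Radioligand competition using 100 μg IM-9 cell cytosol and 1.5 nM [3H]-dexamethasone, incubated 6 h at 4° C in TES/molybdate buffer, pH 7.4. Filtration on PEI-treated GF/B filters, scintillation counting; nonspecific binding defined with 10 μM triamcinolone.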

AR-Receptor = target: T2, AR-Receptor (Homo sapiens, UniProt P10275); assay: Functional Assay AR-Receptor (MDA-MB-453 cells, luciferase); format: cell-based; conditions: antagonist effect in the presence of DHT 1 nM, 24 h, luciferase luminescence, read-out: AR antag KB
T2 sequence (P10275 1-920 Q868H): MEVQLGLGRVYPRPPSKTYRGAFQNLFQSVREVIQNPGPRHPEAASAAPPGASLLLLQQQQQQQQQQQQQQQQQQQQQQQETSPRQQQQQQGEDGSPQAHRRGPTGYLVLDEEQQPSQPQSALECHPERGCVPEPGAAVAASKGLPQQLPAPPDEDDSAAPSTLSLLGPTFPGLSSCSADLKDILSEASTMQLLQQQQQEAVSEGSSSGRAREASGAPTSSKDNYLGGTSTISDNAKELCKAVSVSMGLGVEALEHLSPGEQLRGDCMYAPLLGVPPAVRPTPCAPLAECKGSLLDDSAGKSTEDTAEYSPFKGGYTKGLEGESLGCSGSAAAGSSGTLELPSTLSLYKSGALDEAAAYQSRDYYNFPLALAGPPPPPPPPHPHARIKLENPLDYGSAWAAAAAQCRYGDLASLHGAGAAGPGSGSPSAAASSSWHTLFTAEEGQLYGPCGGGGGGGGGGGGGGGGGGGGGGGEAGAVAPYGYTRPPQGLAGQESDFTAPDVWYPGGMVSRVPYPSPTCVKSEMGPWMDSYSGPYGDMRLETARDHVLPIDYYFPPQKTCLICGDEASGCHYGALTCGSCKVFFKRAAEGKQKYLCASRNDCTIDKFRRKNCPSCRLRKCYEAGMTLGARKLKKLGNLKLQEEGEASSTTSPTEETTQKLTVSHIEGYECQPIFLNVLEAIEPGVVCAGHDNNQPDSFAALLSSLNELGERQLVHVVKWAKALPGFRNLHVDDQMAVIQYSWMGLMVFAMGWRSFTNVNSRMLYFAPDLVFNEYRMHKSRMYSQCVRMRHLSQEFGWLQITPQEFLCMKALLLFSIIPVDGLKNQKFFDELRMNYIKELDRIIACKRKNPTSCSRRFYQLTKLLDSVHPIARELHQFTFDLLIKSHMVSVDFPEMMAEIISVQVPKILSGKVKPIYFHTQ
Experimental: Functional Assay AR-Receptor
MDA-MB-453 cells were cultured in DMEM (ATCC, ref 30-2002), 10% FBS, 1% penicillin, 1% streptomycin, 75 μg/ml gentamycin.
The day before performing assay, the cells were trypsinized and seeded in a 384-well plate (Greiner, ref 781098) (8000 cells/well) in 50 μl of complete culture medium. Cells were stores at 37° C. in a 5% CO2 atmosphere overnight.
The medium was replaced by 50 μl complete growth medium with 0.1% FBS. Compounds were dispensed with Echo 550 (Labcyte) and incubated for 24 h at 37° C. in a 5% CO2 atmosphere. Antagonist effect was measured in the presence of DHT 1 nM.
After incubation, assay medium removed and 20 μl of 1× Promega lysis buffer were added to each well. The plate was incubated 15 minutes at RT and quick-frozen to −80° C. and the thaw to room temperature. 50 μl of luciferase substrate (E4550, Promega) were added to each well and luminescence (integration time 1000 msec) was read in an EnSpire multilabel reader (Perkin Elmer).

human androgen receptor = target: T3, human androgen receptor (Homo sapiens, UniProt P10275, T878A); assay: Human Androgen Receptor Binding (radioligand binding, LnCap prostate cancer cell line); conditions: LnCap cells, displacement of [^3H]-methyltrienolone, 2 hours at 37° C.; read-out: AR LNCaP
T3 construct: endogenously expressed human androgen receptor using the LnCap prostate cancer cell line; endogenous in cells; host or cells: LNCaP prostate cancer cell line (whole cells)
T3 sequence (P10275 1-920 T878A): T2 sequence (P10275 1-920 Q868H) with H868Q, T878A
Procedure, shortened: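 Whole-cell displacement of [3H]-methyltrienolone from endogenous AR (T878A) in LnCap cells, in RPMI with 0.1% BSA and triamcinolone acetonide. Compounds 10 μM to 0.1 nM in 1:10 steps, 2 h at 37 °C; cells washed, SDS-lysed, bound radioactivity by scintillation counting for IC50.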

Rat Androgen Receptor = target: T4, Rat Androgen Receptor (Rattus norvegicus, UniProt P15207); assay: Rat Androgen Receptor Binding (polarscreen AR competitor assay, fluorescence polarization); conditions: displacement of Fluormone AL Green, 4 hours at RT, read-out: AR rat-fluorimetric
T4 construct: purchased Life Technologies A15880
T4 sequence (P15207 646-902 limits assumed): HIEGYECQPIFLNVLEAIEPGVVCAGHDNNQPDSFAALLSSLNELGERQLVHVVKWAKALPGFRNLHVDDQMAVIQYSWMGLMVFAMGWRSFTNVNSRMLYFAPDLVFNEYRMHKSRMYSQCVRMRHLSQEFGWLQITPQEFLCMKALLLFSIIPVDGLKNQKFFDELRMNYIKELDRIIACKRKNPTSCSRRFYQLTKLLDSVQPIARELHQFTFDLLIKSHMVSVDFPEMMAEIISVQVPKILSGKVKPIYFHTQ
Procedure, shortened: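 Fluorescence-polarization competition of Fluormone AL Green binding to rat androgen receptor; compounds screened in duplicate at 1 and 10 μM, 4 h at RT, read at λexc 485/λem 535 nm. IC50 from 1:10 dilution series, 10 μM to 0.1 nM, in 1× buffer.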

Compound	IC50 [1] [nM]	Kb (AR-Receptor) [nM]	IC50 (human androgen receptor) [nM]	IC50 (Rat Androgen Receptor) [nM]
CC(=O)C1=C(C)NC(C)=C(C(=O)OCc2ccncc2)C1c1csc2ncccc12 (stereo not drawn) [Example C64, Pyridin-4-ylmethyl 5-acetyl-2,6-dimethyl-4-(thieno[2,3-b]pyridin-3-yl)-1,4dihydropyridine-3-carboxylate]	≥ 1000	100 to 1000	–	–
CC(=O)C1=C(C)NC(C)=C(C(=O)OC2CCC(F)(F)CC2)C1c1csc2ncccc12 (stereo not drawn) [Example C79, 4,4-difluorocyclohexyl 5-acetyl-2,6-dimethyl-4-(thieno[2,3-b]pyridin-3-yl)-1,4-dihydropyridine-3-carboxylate]	< 100	≥ 1000	–	–
COC(=O)C1=C(C2CC2)NC(C2CC2)=C(C#N)C1c1csc2c(C#N)cccc12 (stereo not drawn) [Example C107, Methyl 5-cyano-4-(7-cyanobenzo[b]thiophen-3-yl)-2,6-dicyclopropyl-1,4-dihydropyridine-3-carboxylate]	< 100	≥ 1000	–	–
Benzyl 5-acetyl-4-(7-(methoxycarbonyl)benzo[b]thiophen-3-yl)-2,6-dimethyl-1,4-dihydropyridine-3-carboxylate [Example J38]	–	100 to 1000	–	–
CC(=O)C1=C(C)NC(C)=C(C(=O)OCc2cccnc2)C1c1csc2ncccc12 (stereo not drawn) [Example C61, Pyridin-3-ylmethyl 5-acetyl-2,6-dimethyl-4-(thieno[2,3-b]pyridin-3-yl)-1,4-dihydropyridine-3-carboxylate]	≥ 1000	100 to 1000	–	–
CC(=O)C1=C(C)NC(C2CC2)=C(C(=O)OCc2ccncc2)C1c1csc2ccc(Cl)cc12 (stereo not drawn) [Example J34, Pyridin-4-ylmethyl 5-acetyl-4-(5-chlorobenzo[b]thiophen-3-yl)-2-cyclopropyl-6-methyl-1,4-dihydropyridine-3-carboxylate]	–	100 to 1000	–	–
CC(=O)C1=C(C)NC(N)=C(C(=O)OC2CCCC2)C1c1csc2c(Br)cccc12 (stereo not drawn) [Example D6, Cyclopentyl 5-acetyl-2-amino-4-(7-bromobenzo[b]thiophen-3-yl)-6-methyl-1,4-dihydropyridine-3-carboxylate]	100 to 1000	≥ 1000	–	–
CC(=O)C1=C(C)NC(C)=C(C(=O)OCc2ccncc2)C1c1csc2ccc(Cl)cc12 (stereo not drawn) [Example C62, Pyridin-4-ylmethyl 5-acetyl-4-(5-chlorobenzo[b]thiophen-3-yl)-2,6-dimethyl-1,4-dihydropyridine-3-carboxylate]	–	100 to 1000	–	–
CC(=O)C1=C(C)NC(C)=C(C(=O)OCc2cncc(-c3ccncc3)c2)C1c1csc2ncccc12 (stereo not drawn) [Example L7, [3,4′-bipyridin]-5-ylmethyl 5-acetyl-2,6-dimethyl-4-(thieno[2,3-b]pyridin-3-yl)-1,4-dihydropyridine-3-carboxylate]	100 to 1000	≥ 1000	–	–
CC(=O)C1=C(C)NC(C)=C(C(=O)OCc2cccnc2)C1c1csc2ccc(Cl)cc12 (stereo not drawn) [Example C60, Pyridin-3-ylmethyl 5-acetyl-4-(5-chlorobenzo[b]thiophen-3-yl)-2,6-dimethyl-1,4-dihydropyridine-3-carboxylate]	–	100 to 1000	–	–
CC(=O)C1=C(C)NC(C)=C(C(=O)OCc2cccnc2)C1c1csc2ccc(F)cc12 (stereo not drawn) [Example C57, Pyridin-3-ylmethyl 5-acetyl-4-(5-fluorobenzo[b]thiophen-3-yl)-2,6-dimethyl-1,4-dihydropyridine-3-carboxylate]	–	100 to 1000	–	–
CC(=O)C1=C(C)NC(C)=C(C(=O)OCc2ccc(-c3ccncc3)nc2)C1c1csc2ncccc12 (stereo not drawn) [Example L9, [2,4′-bipyridin]-5-ylmethyl 5-acetyl-2,6-dimethyl-4-(thieno[2,3-b]pyridin-3-yl)-1,4-dihydropyridine-3-carboxylate]	–	100 to 1000	–	–
COC(=O)C1=C(C2CC2)NC(C)=C(C(C)=O)C1c1csc2ccc(F)cc12 (stereo not drawn) [Example J22, Methyl 5-acetyl-2-cyclopropyl-4-(5-fluorobenzo[b]thiophen-3-yl)-6-methyl-1,4-dihydropyridine-3-carboxylate]	< 100	–	< 100	< 100
